# Key:
# human DJ-1 promoter = assay: DJ-1 promoter luciferase reporter assay in SH-SY5Y cells stably expressing −1000DJ-Luc; type: cell-based; conditions: SH-SY5Y cells stably expressing −1000DJ-Luc and CMV-β-galactosidase; increasing doses of H2O2 for 24 hours; untreated sample designated as 100; FIG. 2
# Excerpt: (§1) To develop a cell-based assay system where one can identify agents that transcriptionally modulate DJ-1, a plasmid vector (−1000DJ-Luc) was made that expressed a luciferase reporter gene directed by the human DJ-1 promoter containing 1000 base pairs upstream and 65 base pairs downstream sequences (−1000 to +65) of the transcription initiation site (FIG. 1). A […] sequence containing +46 to +65 of the DJ-1 gene was fused to the luciferase gene to generate the control plasmid (0DJLuc). A neomycin resistance gene was inserted into the vectors as a selection marker.
# (§2) Using the vector described in Example 1, human SH-SY5Y neuroblastoma cells were transfected with either −1000DJLuc or 0DJLuc; stably transfected clones were subsequently identified. A plasmid encoding β-galactosidase gene was co-transfected to serve as an internal control for luciferase expression.
# (§3) To confirm the stable expression of the reporter genes and to evaluate these cells as devices for drug discovery, stably transfected SH-SY5Y cells were treated with increasing doses of H2O2, which has been reported to upregulate DJ-1. […] Luciferase and β-galactosidase activities were then determined. […]
# (§4) C. […] Luciferase and β-galactosidase activities were determined using assay kits following manufacturer's protocol (Promega).
# [1] = system: 0DJ-Luc (luciferase gene lacking the DJ-1 promoter sequence); assay: Luciferase reporter assay in control cell lines expressing 0DJ-Luc; type: cell-based, human; conditions: H2O2 treatment
# Excerpt: as §1, §2, §3, §4
smiles,measurement,setting,value
OO [H2O2],Luciferase activity normalized to β-galactosidase activity (human DJ-1 promoter activation),human DJ-1 promoter,activated the human DJ-1 promoter in a dose dependent manner
same,Luciferase activity in control cell lines expressing 0DJ-Luc,[1],not affected
